According to ChEMBL document CHEMBL1134012, “Synthesis of thiophene-2-carboxamidines containing 2-aminothiazoles and their biological evaluation as urokinase inhibitors” (Bioorg Med Chem Lett, 2001):

Biological target: Urokinase-type plasminogen activator (Homo sapiens, UniProt P00749)
Assay: In vitro inhibitory activity against Urokinase-type plasminogen activator (microPa)

SMILES	Ki
CSc1sc(C(=N)N)cc1-c1csc(Nc2cccc(OCC(N)=O)c2)n1	1020 nM
CSc1sc(C(=N)N)cc1-c1csc(Nc2cccc3ccccc23)n1	500 nM
CSc1sc(C(=N)N)cc1-c1csc(NC(c2ccccc2)c2ccccc2)n1	1180 nM
CSc1sc(C(=N)N)cc1-c1csc(Nc2ccc(OCc3ccccc3)cc2)n1	180 nM
COc1ccc(Nc2nc(-c3cc(C(=N)N)sc3SC)cs2)cc1	280 nM
CSc1sc(C(=N)N)cc1-c1csc(Nc2ccc(C)cc2Br)n1	430 nM
CSc1sc(C(=N)N)cc1-c1csc(Nc2ccc(S(=O)(=O)N3CCCCC3)cc2)n1	400 nM
CSc1sc(C(=N)N)cc1-c1csc(NCCN2CCOCC2)n1	1400 nM
COc1cccc(Nc2nc(-c3cc(C(=N)N)sc3SC)cs2)c1	280 nM
CSc1sc(C(=N)N)cc1-c1csc(N)n1	3900 nM
CSc1sc(C(=N)N)cc1-c1csc(Nc2ccc(Cc3ccccc3)cc2)n1	180 nM
CSc1sc(C(=N)N)cc1-c1csc(Nc2ccccc2C(C)C)n1	700 nM
COc1ccc(OC)c(Nc2nc(-c3cc(C(=N)N)sc3SC)cs2)c1	660 nM
CSc1sc(C(=N)N)cc1-c1csc(Nc2ccccc2Br)n1	280 nM
CSc1sc(C(=N)N)cc1-c1csc(Nc2ccc(N(C)C)cc2)n1	310 nM
CSc1sc(C(=N)N)cc1-c1csc(NCc2ccc(C)cc2)n1	640 nM
CSc1sc(C(=N)N)cc1-c1csc(NCCN2CCCCC2)n1	1600 nM

SMILES	Ki
CSc1sc(C(=N)N)cc1-c1csc(Nc2ccc(Oc3ccccc3)cc2)n1	60 nM
CSc1sc(C(=N)N)cc1-c1csc(Nc2ccc(Nc3ccccc3)cc2)n1	70 nM
N=C(N)c1ccc(CS)s1	6000 nM
CSc1sc(C(=N)N)cc1-c1csc(Nc2ccc(Oc3ccc(Cl)cc3)cc2)n1	110 nM
CSc1sc(C(=N)N)cc1-c1csc(Nc2ccc(Oc3ccc(C(F)(F)F)cn3)cc2)n1	910 nM
Cc1sc(C(=N)N)cc1-c1csc(Nc2ccc(Oc3ccccc3)cc2)n1	80 nM
COc1cc(Nc2nc(-c3cc(C(=N)N)sc3SC)cs2)cc(OC)c1OC	160 nM
CSc1sc(C(=N)N)cc1-c1csc(Nc2cccc(Cl)c2C)n1	440 nM
CSc1sc(C(=N)N)cc1-c1csc(Nc2ccccc2Cl)n1	1460 nM
CSc1sc(C(=N)N)cc1-c1csc(Nc2c(Cl)cccc2Cl)n1	1500 nM
CSc1sc(C(=N)N)cc1-c1csc(Nc2cccc(C)c2C)n1	280 nM
CSc1sc(C(=N)N)cc1-c1csc(Nc2ccc(/N=N/c3ccccc3)cc2)n1	180 nM
CSc1sc(C(=N)N)cc1-c1csc(NCCCc2ccccc2)n1	350 nM
CSc1sc(C(=N)N)cc1-c1csc(N2CCN(c3ccccc3F)CC2)n1	3060 nM
CSc1sc(C(=N)N)cc1-c1csc(Nc2ccc3c(c2)OCO3)n1	520 nM
Cc1sc(C(=N)N)cc1-c1csc(N)n1	1620 nM
CSc1sc(C(=N)N)cc1-c1csc(Nc2ccc(Cl)cc2C)n1	280 nM
